What all share (type): biochemical
One assay has as its target T1, PKCζ (Homo sapiens, UniProt Q05513).
T1 sequence (Q05513 1-592): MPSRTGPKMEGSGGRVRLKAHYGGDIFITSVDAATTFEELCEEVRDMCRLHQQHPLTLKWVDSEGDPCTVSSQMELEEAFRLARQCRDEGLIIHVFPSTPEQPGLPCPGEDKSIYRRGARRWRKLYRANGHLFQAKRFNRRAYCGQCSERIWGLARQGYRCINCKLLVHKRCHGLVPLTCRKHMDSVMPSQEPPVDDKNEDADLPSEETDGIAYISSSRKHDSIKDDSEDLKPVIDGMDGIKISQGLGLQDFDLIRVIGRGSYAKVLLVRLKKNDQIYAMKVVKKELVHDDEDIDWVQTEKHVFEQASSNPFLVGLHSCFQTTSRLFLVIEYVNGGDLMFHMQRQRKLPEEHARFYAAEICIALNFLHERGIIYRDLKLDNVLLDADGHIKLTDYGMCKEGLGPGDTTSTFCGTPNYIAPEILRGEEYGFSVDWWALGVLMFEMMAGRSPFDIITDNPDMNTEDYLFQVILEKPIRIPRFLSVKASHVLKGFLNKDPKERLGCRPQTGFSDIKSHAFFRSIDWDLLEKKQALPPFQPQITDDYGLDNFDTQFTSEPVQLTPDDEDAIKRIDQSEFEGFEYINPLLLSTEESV
Kind of assay: cell-free kinase activity assay. The note with it: DMSO control set 100%, read-out: percent of catalytic activity of the Kinase in the presence of compound as compared to the solvent control (DMSO): PKCζ; for remaining activity at 50 µM: 50 μM compound; for remaining activity at 200 µM: 200 μM compound.

Another assay concerns the target PKBβ (Homo sapiens, UniProt P31751). Kind of assay: cell-free kinase activity assay. The settings on record: DMSO control set 100%; for remaining activity at 50 µM / percent of catalytic activity of the Kinase in the presence of compound as compared to the solvent control (DMSO): PKBβ: 50 μM compound; for remaining activity at 50 µM / remaining activity at 200 µM: read-out: percent of catalytic activity of the Kinase in the presence of compound as compared to the solvent control (DMSO): PKBβ; for remaining activity at 200 µM: 200 μM compound.

A further assay has as its target PRK2 (Homo sapiens, UniProt Q16513). Kind of assay: cell-free kinase activity assay. The note with it: DMSO control set 100%.
The target of a further assay is S6K (Homo sapiens, UniProt P23443). Description: cell-free kinase activity assay. The note with it: DMSO control set 100%; for remaining activity at 50 µM / remaining activity at 200 µM: read-out: percent of catalytic activity of the Kinase in the presence of compound as compared to the solvent control (DMSO): S6K.
Sequence of S6K (P23443 whole entry): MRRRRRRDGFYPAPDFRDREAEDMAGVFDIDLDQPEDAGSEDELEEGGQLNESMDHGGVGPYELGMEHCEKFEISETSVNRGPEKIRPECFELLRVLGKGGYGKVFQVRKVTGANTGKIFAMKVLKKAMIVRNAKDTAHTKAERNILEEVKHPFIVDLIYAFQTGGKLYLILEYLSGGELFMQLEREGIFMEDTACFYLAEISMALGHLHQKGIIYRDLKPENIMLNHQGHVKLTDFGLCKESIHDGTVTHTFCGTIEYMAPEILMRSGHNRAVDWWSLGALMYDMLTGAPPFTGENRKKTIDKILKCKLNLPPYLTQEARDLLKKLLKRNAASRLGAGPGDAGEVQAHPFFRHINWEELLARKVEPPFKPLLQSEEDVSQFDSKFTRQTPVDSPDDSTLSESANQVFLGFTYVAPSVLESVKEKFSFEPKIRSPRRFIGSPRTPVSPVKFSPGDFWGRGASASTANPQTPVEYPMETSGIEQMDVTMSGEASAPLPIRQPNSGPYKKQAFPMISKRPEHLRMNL
The next assay addresses T2, SGK (Homo sapiens, UniProt O00141).
T2 sequence (O00141 1-431): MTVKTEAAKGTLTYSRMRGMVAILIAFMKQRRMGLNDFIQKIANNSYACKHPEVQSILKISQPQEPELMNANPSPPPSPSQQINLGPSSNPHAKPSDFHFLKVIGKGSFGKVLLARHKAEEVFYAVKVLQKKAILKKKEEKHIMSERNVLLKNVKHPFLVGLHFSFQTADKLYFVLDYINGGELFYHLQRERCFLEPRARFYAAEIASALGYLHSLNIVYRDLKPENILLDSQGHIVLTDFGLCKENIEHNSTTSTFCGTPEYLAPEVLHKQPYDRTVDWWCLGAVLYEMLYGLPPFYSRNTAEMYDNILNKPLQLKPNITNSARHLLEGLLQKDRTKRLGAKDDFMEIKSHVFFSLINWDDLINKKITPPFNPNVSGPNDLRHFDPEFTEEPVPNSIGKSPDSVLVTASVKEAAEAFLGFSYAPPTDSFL
Description: cell-free kinase activity assay. The settings on record: DMSO control set 100%; for remaining activity at 200 µM / remaining activity at 50 µM: read-out: percent of catalytic activity of the Kinase in the presence of compound as compared to the solvent control (DMSO): SGK.

The target of another assay is T3, PDK1 (Homo sapiens, UniProt O15530).
T3 construct: GST
T3 sequence (O15530 1-556): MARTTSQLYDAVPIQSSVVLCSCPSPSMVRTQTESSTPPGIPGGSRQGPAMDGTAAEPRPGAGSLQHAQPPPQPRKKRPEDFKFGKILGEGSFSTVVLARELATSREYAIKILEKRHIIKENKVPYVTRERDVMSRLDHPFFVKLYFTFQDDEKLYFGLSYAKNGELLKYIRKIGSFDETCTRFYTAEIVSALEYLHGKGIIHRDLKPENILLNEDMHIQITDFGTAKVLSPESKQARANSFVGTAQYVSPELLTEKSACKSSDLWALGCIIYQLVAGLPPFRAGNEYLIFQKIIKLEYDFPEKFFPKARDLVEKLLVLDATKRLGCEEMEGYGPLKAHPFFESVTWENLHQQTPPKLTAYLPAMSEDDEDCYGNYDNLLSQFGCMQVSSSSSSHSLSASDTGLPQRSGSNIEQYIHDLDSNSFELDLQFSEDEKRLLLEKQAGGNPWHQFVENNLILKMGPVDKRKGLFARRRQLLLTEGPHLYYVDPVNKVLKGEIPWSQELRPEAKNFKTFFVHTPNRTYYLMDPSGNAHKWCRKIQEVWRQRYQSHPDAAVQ
Kind of assay: cell-free kinase activity assay (ATPgamma[32P], T308tide substrate). The note with it: for activity at 50 µM: 50 μM compound; for activity at 50 µM / activity at 200 µM: DMSO control set 100%, read-out: percent of catalytic activity of the Kinase in the presence of compound as compared to the solvent control (DMSO): PDK1; for activity at 200 µM: 200 μM compound; for AC50: concentration of the compound required to activate half maximally; for AC50 / max. activation of PDK1 (fold): n.e.: no effect; for max. activation of PDK1 (fold): maximum activation achievable, compared to the basal activity of PDK1. From the text: Principle of the cell-free kinase activity assay: In general, the activity of the compounds as protein kinase inhibitors or activators may be assayed in vitro (cell free assay is meant here), in vivo or in a cell line. In vitro assays include assays that determine inhibition or activation of either the phosphorylation activity or ATPase activity of the activated protein kinase. Alternate in vitro assays quantitate the ability of the inhibitor to bind to the protein kinase. Compound binding may be measured by radiolabelling the compound prior to binding, isolating the inhibitor or activator/protein kinase complex and determining the amount of radiolabel bound. Alternatively, inhibitor or activator binding may be determined by running a competition experiment where new compounds are incubated with the protein kinase bound to known radioligands. Newer methods comprise fluorescence polarisation assays and surface plasmon resonance dependent techniques. […] The activity and modulation of activity is measured using a standard ATPgamma[^32P] assay as described earlier. […] The concentration of T308tide is 1 mM and the amount of PDK1 used is 200 ng. Reactions are carried out at room temperature. Reaction is started by addition of ATP-Mg mix and stopped with phosphoric acid after 30 min. Stopped reactions were spotted on to phosphocellulose paper (P81, Whatman) and washed. After drying, the radioactivity associated to the band was quantified.

In a further assay the target is PKA (Homo sapiens, UniProt P17612). Kind of assay: cell-free kinase activity assay. The note with it: DMSO control set 100%; for remaining activity at 200 µM: read-out: percent of catalytic activity of the Kinase in the presence of compound as compared to the solvent control (DMSO): PKA.

Each structure is given as a SMILES string.

Sequence of PRK2 (Q16513 whole entry, species assumed): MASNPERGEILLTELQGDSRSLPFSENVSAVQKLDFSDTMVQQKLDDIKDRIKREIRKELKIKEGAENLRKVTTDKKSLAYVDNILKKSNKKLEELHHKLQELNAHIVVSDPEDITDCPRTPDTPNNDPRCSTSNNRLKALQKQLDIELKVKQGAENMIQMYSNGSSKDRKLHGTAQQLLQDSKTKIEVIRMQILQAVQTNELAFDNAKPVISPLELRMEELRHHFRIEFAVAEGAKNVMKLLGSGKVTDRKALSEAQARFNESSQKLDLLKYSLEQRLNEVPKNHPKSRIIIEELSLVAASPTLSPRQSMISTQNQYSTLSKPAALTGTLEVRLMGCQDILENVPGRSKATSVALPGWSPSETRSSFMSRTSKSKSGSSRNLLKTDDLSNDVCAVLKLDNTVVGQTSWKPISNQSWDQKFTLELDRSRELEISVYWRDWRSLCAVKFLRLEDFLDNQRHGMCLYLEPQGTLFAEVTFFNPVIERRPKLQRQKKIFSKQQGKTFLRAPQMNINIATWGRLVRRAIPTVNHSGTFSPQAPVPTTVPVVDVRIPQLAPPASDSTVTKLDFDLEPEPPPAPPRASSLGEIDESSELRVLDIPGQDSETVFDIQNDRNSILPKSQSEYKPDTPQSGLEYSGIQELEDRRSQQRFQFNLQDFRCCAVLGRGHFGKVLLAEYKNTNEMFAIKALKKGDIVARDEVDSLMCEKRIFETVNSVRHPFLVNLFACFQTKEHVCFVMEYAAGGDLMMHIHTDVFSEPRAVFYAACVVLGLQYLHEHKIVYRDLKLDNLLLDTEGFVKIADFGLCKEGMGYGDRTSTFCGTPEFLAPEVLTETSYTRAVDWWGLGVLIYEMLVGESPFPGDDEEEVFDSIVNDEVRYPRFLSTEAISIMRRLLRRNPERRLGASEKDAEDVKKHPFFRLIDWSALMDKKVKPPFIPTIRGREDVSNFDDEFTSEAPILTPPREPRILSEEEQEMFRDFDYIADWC
Sequence of PKBβ (P31751 whole entry, species assumed): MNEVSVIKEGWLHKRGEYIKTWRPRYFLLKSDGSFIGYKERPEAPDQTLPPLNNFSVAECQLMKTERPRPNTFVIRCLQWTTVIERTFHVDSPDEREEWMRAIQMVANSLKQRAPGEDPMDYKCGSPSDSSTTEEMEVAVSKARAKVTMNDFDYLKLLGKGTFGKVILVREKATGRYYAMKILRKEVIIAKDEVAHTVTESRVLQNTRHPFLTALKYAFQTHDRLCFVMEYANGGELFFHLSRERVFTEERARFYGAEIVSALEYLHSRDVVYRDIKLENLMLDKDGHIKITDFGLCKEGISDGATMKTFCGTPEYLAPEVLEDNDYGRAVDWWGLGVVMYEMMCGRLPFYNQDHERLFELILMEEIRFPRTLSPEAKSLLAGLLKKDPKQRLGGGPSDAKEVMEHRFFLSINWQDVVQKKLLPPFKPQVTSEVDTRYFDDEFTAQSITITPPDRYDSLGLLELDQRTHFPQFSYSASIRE

One may read the AC50 as the concentration giving half of the maximal activity seen. Read a high AC50 as weaker potency. Regarding `O=C(O)/C=C(/CCc1cccc(Cl)c1)c1ccccc1` [PS 87, (Z)-5-(3-Chlorophenyl)-3-phenylpent-2-enoic acid], the figures for the remaining activity at 50 µM at PKCζ, on PKBβ and at S6K (50 μM compound) were 45%, about 80% and 90%, respectively. The remaining activity at 200 µM was 3% at PKCζ, about 60% on PKBβ, 65% at S6K (200 μM compound) and 60% at SGK (200 μM compound). The “percent of catalytic activity of the Kinase in the presence of compound as compared to the solvent control (DMSO): PRK2” value (“percent of catalytic activity … PRK2” for short) at PRK2 (50 μM compound) and on PRK2 (200 μM compound) was “no effect” each time. For the same compound, the “percent of catalytic activity of the Kinase in the presence of compound as compared to the solvent control (DMSO): SGK” value (shortened to “percent of catalytic activity … SGK”) on SGK (50 μM compound) is “no effect”. At PDK1, the activity at 50 µM was determined as 150%. On PDK1, the activity at 200 µM is 150%. At PDK1, this compound came in with a concentration at half-maximal activity (AC50) of 11.6 µM. Moreover, the “max. activation of PDK1 (fold)” value at PDK1 was found to be 4.1 fold.
As for `O=C(O)/C=C1\c2ccccc2CC1Cc1ccc(Cl)cc1` (stereo not drawn) [PS 102], the remaining activity at 50 µM on PKCζ is 45%; on PKBβ, 80 to 90%; at S6K (50 μM compound) it was 90%; on SGK (50 μM compound) it was 112%. Moreover, the remaining activity at 200 µM at PKCζ was 2%; on PKBβ it was 60 to 70%; on PRK2 (200 μM compound, read-out: percent of catalytic activity of the Kinase in the presence of compound as compared to the solvent control (DMSO): PRK2), 110%; at S6K (200 μM compound) it was 55%; on SGK (200 μM compound), 50%. Moreover, the “percent of catalytic activity … PRK2” value on PRK2 (50 μM compound) is on record as “no effect”. The activity at 200 µM at PDK1 stood at 180%. At PDK1, this compound returned a half-maximal activity concentration (AC50) of 30 µM. In addition, at PDK1, the “max. activation of PDK1 (fold)” value is recorded as 1.8 fold.
Turning to `O=C(O)/C=C(\CCc1ccc(Cl)cc1)c1ccccc1F` [PS 145, (E)-5-(4-Chlorophenyl)-3-(2-fluorophenyl)pent-2-enoic acid], the remaining activity at 50 µM at PKCζ is 50%; on SGK (50 μM compound) it was about 80%. Also, the remaining activity at 200 µM at PKCζ was 0%; on PKBβ it was about 70%; on S6K (200 μM compound), about 80%; on SGK (200 μM compound), about 40%; at PKA (200 μM compound), about 60%. The “percent of catalytic activity of the Kinase in the presence of compound as compared to the solvent control (DMSO): PKBβ” value (shortened to “percent of catalytic activity … PKBβ”) on PKBβ is “no effect”. For the same compound, at S6K (50 μM compound), the “percent of catalytic activity of the Kinase in the presence of compound as compared to the solvent control (DMSO): S6K” value (“percent of catalytic activity … S6K” below) is given as “no effect”. On PDK1, the activity at 200 µM is about 120%. Besides, the “percent of catalytic activity of the Kinase in the presence of compound as compared to the solvent control (DMSO): PKA” value (“percent of catalytic activity … PKA” for short) on PKA (50 μM compound) is reported as “no effect”.
Take `O=C(O)CC(Cc1nc2c(Cl)cc(Cl)cc2[nH]1)c1ccc(Cl)cc1` (stereo not drawn) [PS 171, 4-(5,7-Dichloro-2-benzimidazolyl)-3-(4-chlorophenyl)butanoic acid]: the “percent of catalytic activity … PKBβ” value on PKBβ was “no effect”. For the same compound, the remaining activity at 200 µM at PKBβ is about 70%; on S6K (200 μM compound), about 50%; on SGK (200 μM compound), about 70%; at PKA (200 μM compound), 80 to 90%. In addition, the “percent of catalytic activity … PRK2” value on PRK2 (50 μM compound) and on PRK2 (200 μM compound) was “no effect” in each case. Moreover, at S6K (50 μM compound), the “percent of catalytic activity … S6K” value is recorded as “weak inhib”. For the same compound, at SGK (50 μM compound), the “percent of catalytic activity … SGK” value is listed as “no effect”. Moreover, at PDK1, the activity at 200 µM was about 200%. The “percent of catalytic activity … PKA” value at PKA (50 μM compound) is “no effect”.
Regarding `O=C(O)/C=C(/CCc1ccc(Br)cc1)c1ccccc1` [PS-T10, (Z)-5-(4-Bromophenyl)-3-phenylpent-2-enoic acid], at PKBβ, the “percent of catalytic activity … PKBβ” value is recorded as “no effect” and the remaining activity at 200 µM lay within 70 to 80%. Moreover, the “percent of catalytic activity … PRK2” value on PRK2 (50 μM compound) was “no effect”. The “percent of catalytic activity … PRK2” value on PRK2 (200 μM compound) is reported as “no effect”. The “percent of catalytic activity … S6K” value on S6K (50 μM compound) is “no effect”. Moreover, the “percent of catalytic activity … S6K” value on S6K (200 μM compound) is “no effect”. Further, on SGK (50 μM compound), the “percent of catalytic activity … SGK” value is “no effect”. For the same compound, the “percent of catalytic activity … SGK” value at SGK (200 μM compound) is “no effect”. On PDK1, the activity at 50 µM is 400%, the activity at 200 µM is 450%, the AC50 was found to be 14.5 µM and the “max. activation of PDK1 (fold)” value is on record as 4.1 fold. Further, the “percent of catalytic activity … PKA” value at PKA (50 μM compound) was “no effect”. Also, the “percent of catalytic activity … PKA” value at PKA (200 μM compound) is “no effect”.

(Values after patent publication US8912186B2, “Allosteric protein kinase modulators” (Universitaet des Saarlandes, priority 2008, dated 2014).)
